Results: patent US10676474B2, “1,6-naphthyridine derivatives as CDK4/6 inhibitor” (CSTONE PHARMACEUTICALS, priority 2016, dated 2020)
In brackets after ≈: the same amount, converted by molar mass. Like-named read-outs stand apart in the source and are kept apart here.

What was measured:
[1] = system: non-small cell lung cancer NCI-H358 model; assay: In vivo pharmacodynamic study (2), NCI-H358 model, tumor volume; parameters: species or system BALB/c nude mice; settings: 60 mg/kg orally daily, Table 6-1
Protocol: (§1) The in vivo pharmacodynamic experiments were performed on the BALB/c nude mice implanted subcutaneously with the non-small cell lung cancer NCI-H358 model.
(§2) All of the cages, beddings and water were disinfected before use. All of the animals were permitted free access to a standard certified commercial laboratory diet. A total of 86 mice purchased from Vital River Laboratory Animal Co., LTD, Beijing were used for the study. The animal information of the experiments in Example 34 was as follows: BALB/c nude mice, female, 6-8 weeks, weighing approximately 16-18 g, were placed in a single ventilated cage (4 mice per cage) under a special pathogen free environment. All of the cages, beddings and water were disinfected before use. All of the animals were permitted free access to a standard certified commercial laboratory diet. A total of 56 mice purchased from Shanghai Lingchang Biotechnology Co., Ltd. were used for the study.
(§3) Each mouse was implanted subcutaneously with NCI-H358 tumor cells in the right back for tumor growth. The dosing initiated when the average tumor volume reached about 100-200 mm^3. […] The tumor volume was measured twice a week using a two-dimensional caliper, and the volume was measured in mm^3, calculated by the following the formula: V=0.5 a×b^2, wherein, a and b were the long and short diameters of the tumor, respectively. The antitumor efficacy was determined by dividing the average increase in the tumor volume of the animals treated with the compound by the average increase in the tumor volume of the untreated animals, and the safety of the compound was determined by the change in the body weight of the animal treated with the compound.
TGI: Tumor Growth Inhibition.

[2] = Metabolic stability in human liver microsomes; assay type: in vitro ADME; settings: 0.5 mg/mL protein, read-out: Human T1/2
Protocol: (§4) This assay is used to test the metabolic stability of tested substances in rats, mice and human liver microsomes.
(§5) 1) The tested compound with concentration of 1 μM was co-incubated with liver microsomes with a protein concentration of 0.5 mg/mL under a reducing coenzyme II regeneration system in a 37° C. water bath.
(§6) 2) The positive controls include: testosterone (3A4 substrate), propafenene (2D6 substrate) and diclofenac (2C9 substrate). The incubation condition of the positive controls was consistent with that of the compound.
(§7) 3) The reaction time points were: 0, 5, 10, 20, 30 and 60 minutes, and the reaction is terminated at the corresponding time point using a termination solution containing an internal standard. The compounds were also incubated with microsomes for 60 minutes without a reducing coenzyme II regeneration system and served as a negative control.
(§8) 4) Each time point was a single point (n=1).
(§9) 5) The sample was determined by LC/MS/MS, and the compound concentration was shown as the ratio of the peak area of the compound to the peak area of the internal standard (non-standard).
(§10) 6) In the project report summary, the half-life and the clearance rate would be calculated.

Caco-2 cells [3] = assay: Two-way permeability evaluation assay of Caco-2 cells; settings: Caco-2
Caco-2 cells [4] = system: Caco-2 cells
[5] = Metabolic stability in mouse liver microsomes; assay type: in vitro ADME; settings: 0.5 mg/mL protein, read-out: Mice T1/2
Protocol: as §4, §5, §6, §7, §8, §9, §10

[6] = Metabolic stability in rat liver microsomes; assay type: in vitro ADME; settings: 0.5 mg/mL protein, read-out: Rats T1/2
Protocol: as §4, §5, §6, §7, §8, §9, §10

[7] = In vivo pharmacodynamic study (2), NCI-H358 model, animal weight; parameters: species or system BALB/c nude mice; settings: 60 mg/kg orally daily
Protocol: as §1, §2, §3

[8] = Thermodynamic solubility test (shake-flask, HPLC); assay type: physicochemical; settings: phosphate buffer, aqueous buffer, thermodynamic from solid
Protocol: The thermodynamic solubility of the compounds was determined by the shake-flask method and HPLC. The solubility of the compounds is an important property that affects drug screening of compounds and the absorption of compounds in animals and humans. A saturated solution of the compound was first given and quantitatively tested by HPLC to obtain the solubility of the compound.
50 mM phosphate buffer solution, pH 7.4.
Not less than 2 mg of the sample powder was weighed into a vial of Whatman miniuniprep. If test of the thermodynamic solubility of a sample in multiple buffer solutions is required, an individual vial is required for each test.
450 μL of the buffer solution (pH 7.4) was added to each Whatman miniuniprep vial.
After the addition of the buffer solution, the Whatman miniuniprep cap with a filter was mounted and pressed above the liquid level so that the filter could contact with the buffer solution during shaking.
And the observation of the solution was recorded.
It was shaked at 550 RPM for 24 hours at room temperature (about 22 to 25° C.).
The Whatman Miniunipreps filter cap was pressed to the bottom to give the filtrate of the sample solubility solution. All sample vials should be filtered before and after insoluble substances and their leakage.
The buffer was diluted 50 folds to give a sample diluent.
Three UV standards from low to high concentration were injected into HPLC, followed by the injection of the dilutions and supernatants of the tested compounds. The tested sample was injected twice.

physchem = settings: pH 7.4, aqueous buffer, kinetic from dmso stock
[9] = Two-way permeability evaluation assay of Caco-2 cells; settings: human, Caco-2, pH 7.4
CDK6/cyclin D1 = target: T1, CDK6/cyclin D1 (Homo sapiens, UniProt Q00534); assay: Enzyme activity assay CDK6/cyclin D1 (Lance Ultra); assay type: biochemical; settings: 0.8 nM CDK6/cyclin D1, 250 μM ATP, 180 minutes
T1 construct: purchased Life technology
Protocol: (§11) CDK4/cyclin D1, CDK6/cyclin D1 (Life technology). ULight labeled polypeptide substrates ULight-4E-BP1 and ULight-MBP (PerkinElmer). Europium labeled anti-myelin basic protein antibody and europium labeled rabbit-derived antibody (PerkinElmer). Envision Multi-label Analyzer (PerkinElmer) for signal detection.
They were respectively dissolved in an enzyme buffer solution comprising: 50 mM hydroxyethylpiperazine ethanesulfuric acid solution at pH 7.5, 1 mM ethylenediaminetetraacetic acid, 10 mM magnesium chloride, 0.01% Brij-35, 2 mM dithiothreitol. After the reaction was started, the OptiPlate 384-well plate was sealed with a top heat seal film TopSeal-A and incubated at room temperature for 180 minutes.
(§12) The termination buffer solution of the enzymatic reaction was prepared, and EDTA was dissolved in a 1-fold diluted assay buffer solution. The reaction was terminated and incubated at room temperature for 5 minutes. 5 μL of the assay mixed solution (prepared with europium labeled anti-myelin basic protein antibody and europium labeled rabbit-derived antibody, respectively) was added to the reactions of CDK4/cyclin D1 and CDK6/cyclin D1, respectively, and incubated at room temperature for 60 minutes. The reaction signal was detected by Envision according to the time-resolved fluorescence resonance energy transfer theory.

NCI-H358 cells = assay: Cell viability assay NCI-H358 (CellTiter-Glo); assay type: cell-based; settings: Homo sapiens, 168 h; NCI-H358, incubated for 7 days
Protocol: The NCI-H358 cell line is from the cell bank of the Department of Biology of WuXi Apptec Co. Ltd. Envision Multi-Label Analyzer (PerkinElmer).
1) 100 μL of phosphate buffer solution was added to the peripheral wells of the 384-well plate and 40 μL of NCI-H358 cell suspension was added to the other wells containing 250 NCI-H358 cells. The cell plate was then placed in a carbon dioxide incubator and incubated overnight.
2) A 3-fold gradient dilution was subjected to the tested compounds using Echo. Each compound was diluted by 10 concentration gradients (diluted from 25 μM to 1.27 nM), 100 nL of which was added to the corresponding wells of the cell plate. The cell plate was then placed in a carbon dioxide incubator and incubated for 7 days.
3) 20 μL of Promega CellTiter-Glo reagent was added to each well of the cell plate, and shaken for 10 minutes away from light at room temperature to stabilize the luminescence signal. Readings were performed using a PerkinElmer Envision Multi-label Analyzer.
Table 1 provides the inhibitory activity of the compounds of the present invention against the proliferation of H358 cells.

CDK4/cyclin D1 = target: T2, CDK4/cyclin D1 (Homo sapiens, UniProt P11802); assay: Enzyme activity assay CDK4/cyclin D1 (Lance Ultra); assay type: biochemical; settings: 0.3 nM CDK4/cyclin D1, 350 μM ATP, 180 minutes
T2 construct: purchased Life technology
Protocol: as §11
They were respectively dissolved in an enzyme buffer solution comprising: 50 mM hydroxyethylpiperazine ethanesulfuric acid solution at pH 7.5, 1 mM ethylenediaminetetraacetic acid, 10 mM magnesium chloride, 0.01% Brij-35, 2 mM dithiothreitol. After the reaction was begun, the OptiPlate 384-well plate was sealed with a top heat seal film TopSeal-A, and incubated at room temperature for 180 minutes.
as §12

[10] = it has been reported; cited from earlier work
[11] = system: LU-01-0393 lung cancer patient-derived tumor tissue xenograft (PDX); assay: In vivo pharmacodynamic study (1), LU-01-0393 PDX; parameters: species or system BALB/c nude mice; settings: 120 mg/kg orally daily
Protocol: The in vivo pharmacodynamic experiments were performed on the BALB/c nude mice implanted subcutaneously with the LU-01-0393 lung cancer patient-derived tumor tissue xenograft (PDX).
BALB/c nude mice, female, 6-8 weeks, weighing approximately 17-21 g, were placed in a single ventilated cage (5 mice per cage) under a special pathogen free environment. All of the cages, beddings and water were disinfected before use. All of the animals were permitted free access to a standard certified commercial laboratory diet. A total of 36 mice purchased from Vital River Laboratory Animal Co., LTD, Beijing were used for the study. Each mouse was implanted subcutaneously with a tumor LU-01-0393 FP4 section (20-30 mm^3) in the right back for tumor growth. The dosing initiated when the average tumor volume reached about 150-200 mm^3. The tumor volume was measured twice a week using a two-dimensional caliper, and the volume was measured in mm^3, calculated by the following the formula: V=0.5 a×b^2, wherein, a and b were the long and short diameters of the tumor, respectively. The antitumor efficacy was determined by dividing the average increase in the tumor volume of the animals treated with the compound by the average increase in the tumor volume of the untreated animals.

T1 sequence (Q00534 whole entry): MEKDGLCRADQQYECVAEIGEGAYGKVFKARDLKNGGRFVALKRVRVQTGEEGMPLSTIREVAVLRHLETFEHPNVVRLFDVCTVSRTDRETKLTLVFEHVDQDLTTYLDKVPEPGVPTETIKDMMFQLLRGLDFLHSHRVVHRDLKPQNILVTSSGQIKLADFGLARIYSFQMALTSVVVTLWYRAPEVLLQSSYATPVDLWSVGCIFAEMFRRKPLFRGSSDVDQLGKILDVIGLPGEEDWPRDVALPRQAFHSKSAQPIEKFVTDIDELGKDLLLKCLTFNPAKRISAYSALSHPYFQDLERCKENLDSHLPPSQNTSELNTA
T1 sequence (P24385 whole entry partner): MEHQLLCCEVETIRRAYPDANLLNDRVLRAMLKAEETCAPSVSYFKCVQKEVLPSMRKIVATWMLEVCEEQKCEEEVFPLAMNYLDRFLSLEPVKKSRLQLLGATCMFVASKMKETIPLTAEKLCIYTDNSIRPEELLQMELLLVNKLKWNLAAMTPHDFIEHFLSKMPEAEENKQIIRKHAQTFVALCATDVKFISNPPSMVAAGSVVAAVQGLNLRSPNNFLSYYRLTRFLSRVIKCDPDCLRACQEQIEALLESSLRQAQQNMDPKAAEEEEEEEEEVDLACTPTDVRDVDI
T2 sequence (P11802 whole entry): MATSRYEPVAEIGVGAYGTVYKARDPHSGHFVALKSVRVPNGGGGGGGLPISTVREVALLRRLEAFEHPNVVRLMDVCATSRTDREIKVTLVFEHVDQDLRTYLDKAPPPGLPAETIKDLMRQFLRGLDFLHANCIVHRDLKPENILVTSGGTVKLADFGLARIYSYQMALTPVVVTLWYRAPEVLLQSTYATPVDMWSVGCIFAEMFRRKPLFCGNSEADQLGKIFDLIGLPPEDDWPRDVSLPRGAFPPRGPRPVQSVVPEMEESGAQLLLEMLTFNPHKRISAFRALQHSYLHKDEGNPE
T2 sequence (P24385 whole entry partner): as the sequence (P24385 whole entry partner) above

Structure (SMILES)	Gross tumor volume, 0 day [1] [mm^3]	Gross tumor volume, 7 days [1] [mm^3]	Gross tumor volume, 14 days [1] [mm^3]	Gross tumor volume, 17 days [1] [mm^3]	half-life at 1 μM [2] [min]	Category Permeability (Caco-2 cells [3])	Category Efflux transporter substrate (Caco-2 cells [4])	half-life at 1 μM [5] [min]	half-life at 1 μM [6] [min]	Changes in animal weight, 0 days [7] [%]	Changes in animal weight, 7 days [7] [%]	Changes in animal weight, 14 days [7] [%]	Changes in animal weight, 17 days [7] [%]	solubility kinetic at 24 h (physchem; phosphate buffer) [µM]	IC50 (NCI-H358 cells) [nM]	further results
CCN1CCN(Cc2ccc(Nc3ncc(F)c(-c4cc(F)c5nc(C)n(C(C)C)c5c4)n3)nc2)CC1 [LY2835219, Abemaciclib]	152	97	73	60	2.69	Medium	Possible	2.36	6.34	0.0	−2.9	−3.5	−3.5			
NC(=O)N1c2ccccc2C=Cc2ccccc21 [Carbamazepine, reference compound]														180 ± 15 (≈ 42.5 µg/mL)		solubility thermodynamic at 24 h ([8]; QC samples, pH 7.4, read-out: Thermodynamic solubility pH 7.4): 450 ± 60 µM (≈ 106 µg/mL)
CC(=O)c1c(C)c2cnc(Nc3cnc(N4CCN(C(C)C)CC4)cn3)cc2n(C2CCCC2)c1=O [Example 3]	152	141	159	136		High				0.0	−1.0	0.5	0.8	171 (≈ 83.7 µg/mL)	176	Category Efflux transporter substrate (Caco-2 cells [3]): Less; Papp A→B at 2 h, 2 μM [9]: 10.9 ×10⁻⁶ cm/s; Papp B→A at 2 h, 2 μM [9]: 12.4 ×10⁻⁶ cm/s; efflux ratio at 2 h, 2 μM [9]: 1.14; IC50 (CDK6/cyclin D1): 2.9 nM; IC50 (CDK4/cyclin D1): 6.1 nM
CC(=O)c1c(C)c2cnc(Nc3ccc(N4CCNCC4)cn3)nc2n(C2CCCC2)c1=O [Palbociclib]	152	137	107	104	44.7		Highly	53.3	47.8	0.0	1.0	0.9	0.7		314	solubility thermodynamic at 24 h ([8]; pH = 7.4, Table 3-2, read-out: Thermodynamic solubility): 65.3 µM (≈ 29.2 µg/mL); brain permeability [10]: poor; solubility kinetic at 24 h (physchem): 103 µM (≈ 46.1 µg/mL); Category Permeability (Caco-2 cells [4]): Low; Gross tumor volume Day 0 ([11]; Day 0): 145 mm^3; Gross tumor volume Day 7 ([11]; Day 7): 173 mm^3; Gross tumor volume Day 14 ([11]; Day 14): 179 mm^3; Gross tumor volume Day 20 ([11]; Day 20): 188 mm^3
